Measured values as given in US4596875A, “Preparation of amides of 4-hydroxy-3-quinoline-carboxylic acid” (Roussel Uclaf, priority 1982, dated 1986).

Assays:
[1] = Analgesic activity: acetic acid-provoked stretching test based on Koster et al; type: in vivo; settings: Mus musculus; mice, oral, 30 minutes before intraperitoneal acetic acid (1% solution, 0.01 ml/g); fasted 24 hours; 15 minute observation; read-out: DA50 (dose which diminished the number of stretchings by 50% as compared to the controls)
Description: The test was based on that of Koster et al [Fed. Proc., Vol. 1B (1959), p. 412] in which mice received an intraperitoneal injection of acetic acid to provoke repeated stretching and twisting movements which persist for more than 6 hours. An analgesic prevents or reduces this syndrome which is considered to be an exteriorization of a diffuse abdominal pain. A 1% solution of acetic acid in water was used and the dose […] the syndrome under these conditions was 0.01 ml/g or 100 mg/kg of acetic acid.
The test compound was orally administered to the mice 30 minutes before the acetic acid injection and the mice had been fasting for the previous 24 hours. The stretchings were counted for each mouse for a 15 minute observation period after the acetic acid injection and the dose which diminished the number of stretchings by 50% as compared to the controls (DA50) was 1.2 and 0.3 mg/kg for the compounds of Example 2 and 10 respectively.

[2] = Anti-inflammatory activity: edema test provoked by carraghenin; type: in vivo; settings: Rattus norvegicus; male rats 130 to 150 g, oral, simultaneous with 0.05 ml of 1% carraghenin in rear paw; paw volume at 2,4,6,8 and 24 hours; read-out: DA50 (dose which reduced the edema by 50%)
Description: The anti-inflammatory activity was determined by the edema test provoked by carraghenin in male rats weighing about 130 to 150 g which received 0.05 ml of sterile suspension of 1% carraghenin into the tibiotarsien articulation of the rear paw. Simultaneously the test product in a suspension of 0.25% carboxymethyl cellulose and 0.02% of Tween was orally administered. The volume of the paw was measured before the test and then 2,4,6,8 and 24 hours later. The intensity of inflammation was maximum at 4 to 6 hours after the injection of carraghenin and the differences in paw volume of controls and treated animals were evidence of anti-inflammatory action. The DA50 dose which is that which reduced the edema by 50% was 15 and 12 mg/kg for the products of Examples 2 and 10 respectively.

Structure (SMILES) | ED50 [1] | ED50 [2]
CC(O)c1nc2c(C(F)(F)F)cccc2c(O)c1C(=O)Nc1nccs1 (stereo not shown) [Example 2, 4-hydroxy-2-(1-hydroxyethyl)-N-(2-thiazolyl)-8-trifluoromethyl-3-quinoline-carboxamide] | 1.2 mg/kg | 15 mg/kg
CCC(O)c1nc2c(C(F)(F)F)cccc2c(O)c1C(=O)Nc1nccs1 (stereo not shown) [Example 10, 4-hydroxy-2-(1-hydroxy-propyl)-N-(2-thiazolyl)-8-trifluoromethyl-3-quinoline-carboxamide] | 0.3 mg/kg | 12 mg/kg
